System: not listed separately
Assay: Cytotoxicity against mouse LMTK cells assessed as reduction in cell viability after 72 hrs by MTT assay
Type: toxicity
Details: not given

Structure (SMILES)	IC50 at 72 h
CC1(C)CC(NC(=O)CCC(=O)O)C(C)(C)N1[O] (stereo not given)	> 300 µM
Cc1c(C)c2c(c(C)c1OC(=O)CCC(=O)O)CCC(C)(C(=O)O)O2 (stereo not given)	> 300 µM
CC1(C)CC(NC(=O)CCC(=O)O)CC(C)(C)N1[O]	> 300 µM

System: not listed separately
Assay: Cytotoxicity against human MT4 cells assessed as reduction in cell viability after 72 hrs by MTT assay
Type: functional, cell-based
Details: MT4, 72 h

Structure (SMILES)	IC50
CC1(C)CC(NC(=O)CCC(=O)O)C(C)(C)N1[O] (stereo not given)	> 400 µM
Cc1c(C)c2c(c(C)c1OC(=O)CCC(=O)O)CCC(C)(C(=O)O)O2 (stereo not given)	285 µM
CC1(C)CC(NC(=O)CCC(=O)O)CC(C)(C)N1[O]	> 400 µM

System: not listed separately
Assay: Ratio of IC50 for human CEM13 cells to concentration causing antioxidant activity in Salmonella typhimurium TA102 harboring […] mutant
Type: functional
Details: not given

Structure (SMILES)	Ratio
CC1(C)CC(NC(=O)CCC(=O)O)C(C)(C)N1[O] (stereo not given)	100 - 1000
CC1(C)CC(NC(=O)CCC(=O)O)CC(C)(C)N1[O]	100 - 1000

System: not listed separately
Assay: Ratio of IC50 for human RPMI8226 cells to concentration causing antioxidant activity in Salmonella typhimurium TA102 harboring […] mutant
Type: functional, RPMI-8226
Details: not given

Structure (SMILES)	Ratio
CC1(C)CC(NC(=O)CCC(=O)O)C(C)(C)N1[O] (stereo not given)	100 - 1000
CC1(C)CC(NC(=O)CCC(=O)O)CC(C)(C)N1[O]	100 - 1000

System: not listed separately
Assay: Cytotoxicity against human MCF7 cells assessed as reduction in cell viability at 300 uM after 72 hrs by MTT assay
Type: functional
Details: MCF7, 72 h

Structure (SMILES)	inhibition at 300 µM
CC1(C)CC(NC(=O)CCC(=O)O)C(C)(C)N1[O] (stereo not given)	17%
Cc1c(C)c2c(c(C)c1OC(=O)CCC(=O)O)CCC(C)(C(=O)O)O2 (stereo not given)	15%
CC1(C)CC(NC(=O)CCC(=O)O)CC(C)(C)N1[O]	20%

System: not listed separately
Assay: Cytotoxicity against human RPMI8226 cells assessed as reduction in cell viability after 72 hrs by MTT assay
Type: functional, cell-based
Details: RPMI-8226, 72 h

Structure (SMILES)	IC50
CC1(C)CC(NC(=O)CCC(=O)O)C(C)(C)N1[O] (stereo not given)	> 300 µM
Cc1c(C)c2c(c(C)c1OC(=O)CCC(=O)O)CCC(C)(C(=O)O)O2 (stereo not given)	63 µM
CC1(C)CC(NC(=O)CCC(=O)O)CC(C)(C)N1[O]	> 300 µM

System: Salmonella typhimurium
Assay: Genotoxicity in Salmonella typhimurium TA102 harboring […] mutant assessed as frequency of reversion from histidine auxotrophy to prototrophy at 30 mM after 48 hrs by Ames test (reference value: 209 +/- 10 No _unit)
Type: toxicity, organism-based
Details: salmonella enterica subsp. enterica serovar typhimurium, 30000 µM

Structure (SMILES)	Activity
CC1(C)CC(NC(=O)CCC(=O)O)C(C)(C)N1[O] (stereo not given)	199
Cc1c(C)c2c(c(C)c1OC(=O)CCC(=O)O)CCC(C)(C(=O)O)O2 (stereo not given)	216
CC1(C)CC(NC(=O)CCC(=O)O)CC(C)(C)N1[O]	211

System: not listed separately
Assay: Ratio of IC50 for human HEPG2 cells to concentration causing antioxidant activity in Salmonella typhimurium TA102 harboring […] mutant
Type: functional
Details: not given

Structure (SMILES)	Ratio
CC1(C)CC(NC(=O)CCC(=O)O)C(C)(C)N1[O] (stereo not given)	100 - 1000
CC1(C)CC(NC(=O)CCC(=O)O)CC(C)(C)N1[O]	100 - 1000

System: not listed separately
Assay: Cytotoxicity against hamster AG17-1 cells assessed as reduction in cell viability at 300 uM after 72 hrs by MTT assay
Type: toxicity, cell-based, Cricetulus griseus
Details: Chinese hamster, read-out: INH

Structure (SMILES)	cytotoxicity at 72 h, 300 µM
CC1(C)CC(NC(=O)CCC(=O)O)C(C)(C)N1[O] (stereo not given)	19%
Cc1c(C)c2c(c(C)c1OC(=O)CCC(=O)O)CCC(C)(C(=O)O)O2 (stereo not given)	27%
CC1(C)CC(NC(=O)CCC(=O)O)CC(C)(C)N1[O]	0%

System: not listed separately
Assay: Cytotoxicity against human HepG2 cells assessed as reduction in cell viability after 72 hrs by MTT assay
Type: functional, cell-based
Details: HepG2, 72 h

Structure (SMILES)	IC50
CC1(C)CC(NC(=O)CCC(=O)O)C(C)(C)N1[O] (stereo not given)	> 300 µM
Cc1c(C)c2c(c(C)c1OC(=O)CCC(=O)O)CCC(C)(C(=O)O)O2 (stereo not given)	242 µM
CC1(C)CC(NC(=O)CCC(=O)O)CC(C)(C)N1[O]	> 300 µM

System: not listed separately
Assay: Ratio of IC50 for human MT4 cells to concentration causing antioxidant activity in Salmonella typhimurium TA102 harboring […] mutant
Type: functional
Details: not given

Structure (SMILES)	Ratio
CC1(C)CC(NC(=O)CCC(=O)O)C(C)(C)N1[O] (stereo not given)	100 - 1000
CC1(C)CC(NC(=O)CCC(=O)O)CC(C)(C)N1[O]	100 - 1000

System: not listed separately
Assay: Ratio of IC50 for human U937 cells to concentration causing antioxidant activity in Salmonella typhimurium TA102 harboring […] mutant
Type: functional, U-937
Details: not given

Structure (SMILES)	Ratio
CC1(C)CC(NC(=O)CCC(=O)O)C(C)(C)N1[O] (stereo not given)	100 - 1000
CC1(C)CC(NC(=O)CCC(=O)O)CC(C)(C)N1[O]	100 - 1000

System: not listed separately
Assay: Cytotoxicity against human HepG2 cells assessed as reduction in cell viability at 300 uM after 72 hrs by MTT assay
Type: functional
Details: HepG2, 72 h

Structure (SMILES)	inhibition at 300 µM
CC1(C)CC(NC(=O)CCC(=O)O)C(C)(C)N1[O] (stereo not given)	0%
CC1(C)CC(NC(=O)CCC(=O)O)CC(C)(C)N1[O]	0%

System: not listed separately
Assay: Cytotoxicity against human MCF7 cells assessed as reduction in cell viability after 72 hrs by MTT assay
Type: functional, cell-based
Details: MCF7, 72 h

Structure (SMILES)	IC50
CC1(C)CC(NC(=O)CCC(=O)O)C(C)(C)N1[O] (stereo not given)	> 300 µM
Cc1c(C)c2c(c(C)c1OC(=O)CCC(=O)O)CCC(C)(C(=O)O)O2 (stereo not given)	> 300 µM
CC1(C)CC(NC(=O)CCC(=O)O)CC(C)(C)N1[O]	> 300 µM

System: not listed separately
Assay: Ratio of IC50 for human MCF7 cells to concentration causing antioxidant activity in Salmonella typhimurium TA102 harboring […] mutant
Type: functional
Details: not given

Structure (SMILES)	Ratio
CC1(C)CC(NC(=O)CCC(=O)O)C(C)(C)N1[O] (stereo not given)	100 - 1000
CC1(C)CC(NC(=O)CCC(=O)O)CC(C)(C)N1[O]	100 - 1000

System: not listed separately
Assay: Cytotoxicity against human RPMI8226 cells assessed as reduction in cell viability at 300 uM after 72 hrs by MTT assay
Type: functional
Details: RPMI-8226, 72 h

Structure (SMILES)	inhibition at 300 µM
CC1(C)CC(NC(=O)CCC(=O)O)C(C)(C)N1[O] (stereo not given)	44%
CC1(C)CC(NC(=O)CCC(=O)O)CC(C)(C)N1[O]	12%

System: not listed separately
Assay: Genotoxicity in Escherichia coli PQ37 expressing lacZ gene assessed as ratio of inducible beta-galactosidase activity to alkaline phosphatase activity at 30 mM after 2 hrs by SOS-chromotest relative to control
Type: toxicity
Details: Escherichia coli PQ37 cells expressing lacZ gene, read-out: FC

Structure (SMILES)	fold induction at 2 h, 30000 µM
Cc1c(C)c2c(c(C)c1OC(=O)CCC(=O)O)CCC(C)(C(=O)O)O2 (stereo not given)	1.1

System: not listed separately
Assay: Genotoxicity in Escherichia coli PQ37 expressing lacZ gene assessed as ratio of inducible beta-galactosidase activity to alkaline phosphatase activity at 3 mM after 2 hrs by SOS-chromotest relative to control
Type: toxicity
Details: Escherichia coli PQ37 cells expressing lacZ gene, read-out: FC

Structure (SMILES)	fold induction at 2 h, 3000 µM
CC1(C)CC(NC(=O)CCC(=O)O)C(C)(C)N1[O] (stereo not given)	1.2
CC1(C)CC(NC(=O)CCC(=O)O)CC(C)(C)N1[O]	1.3

System: not listed separately
Assay: Cytotoxicity against human U937 cells assessed as reduction in cell viability after 72 hrs by MTT assay
Type: functional, cell-based
Details: U-937, 72 h

Structure (SMILES)	IC50
CC1(C)CC(NC(=O)CCC(=O)O)C(C)(C)N1[O] (stereo not given)	241 µM
Cc1c(C)c2c(c(C)c1OC(=O)CCC(=O)O)CCC(C)(C(=O)O)O2 (stereo not given)	120 µM
CC1(C)CC(NC(=O)CCC(=O)O)CC(C)(C)N1[O]	170 µM

System: Salmonella enterica subsp. enterica serovar Typhimurium
Assay: Antioxidant activity in Salmonella typhimurium TA102 harboring […] mutant assessed as inhibition of t-BuO2H-dependant mutant formation at 30 uM preincubated with compound followed by t-BuO2H addition after 48 hrs by Ames test
Type: functional
Details: not given

Structure (SMILES)	inhibition
CC1(C)CC(NC(=O)CCC(=O)O)C(C)(C)N1[O] (stereo not given)	52%
Cc1c(C)c2c(c(C)c1OC(=O)CCC(=O)O)CCC(C)(C(=O)O)O2 (stereo not given)	35%
CC1(C)CC(NC(=O)CCC(=O)O)CC(C)(C)N1[O]	41%

System: Salmonella enterica subsp. enterica serovar Typhimurium
Assay: Antioxidant activity in Salmonella typhimurium TA102 harboring […] mutant assessed as inhibition of t-BuO2H-dependant mutant formation at 3 uM preincubated with compound followed by t-BuO2H addition after 48 hrs by Ames test
Type: functional
Details: not given

Structure (SMILES)	inhibition
CC1(C)CC(NC(=O)CCC(=O)O)C(C)(C)N1[O] (stereo not given)	48%
Cc1c(C)c2c(c(C)c1OC(=O)CCC(=O)O)CCC(C)(C(=O)O)O2 (stereo not given)	35%
CC1(C)CC(NC(=O)CCC(=O)O)CC(C)(C)N1[O]	49%

System: Salmonella enterica subsp. enterica serovar Typhimurium
Assay: Antioxidant activity in Salmonella typhimurium TA102 harboring […] mutant assessed as inhibition of t-BuO2H-dependant mutant formation at 0.3 uM preincubated with compound followed by t-BuO2H addition after 48 hrs by Ames test
Type: functional
Details: not given

Structure (SMILES)	inhibition
CC1(C)CC(NC(=O)CCC(=O)O)C(C)(C)N1[O] (stereo not given)	38%
Cc1c(C)c2c(c(C)c1OC(=O)CCC(=O)O)CCC(C)(C(=O)O)O2 (stereo not given)	35%
CC1(C)CC(NC(=O)CCC(=O)O)CC(C)(C)N1[O]	36%

System: not listed separately
Assay: Cytotoxicity against mouse LMTK cells assessed as reduction in cell viability at 300 uM after 72 hrs by MTT assay
Type: toxicity
Details: read-out: INH

Structure (SMILES)	cytotoxicity at 72 h, 300 µM
CC1(C)CC(NC(=O)CCC(=O)O)C(C)(C)N1[O] (stereo not given)	0%
Cc1c(C)c2c(c(C)c1OC(=O)CCC(=O)O)CCC(C)(C(=O)O)O2 (stereo not given)	7%
CC1(C)CC(NC(=O)CCC(=O)O)CC(C)(C)N1[O]	18%

System: not listed separately
Assay: Cytotoxicity against hamster AG17-1 cells assessed as reduction in cell viability after 72 hrs by MTT assay
Type: toxicity, cell-based, Cricetulus griseus
Details: Chinese hamster

Structure (SMILES)	IC50 at 72 h
CC1(C)CC(NC(=O)CCC(=O)O)C(C)(C)N1[O] (stereo not given)	> 300 µM
Cc1c(C)c2c(c(C)c1OC(=O)CCC(=O)O)CCC(C)(C(=O)O)O2 (stereo not given)	> 300 µM
CC1(C)CC(NC(=O)CCC(=O)O)CC(C)(C)N1[O]	> 300 µM

System: not listed separately
Assay: Cytotoxicity against human MT4 cells assessed as reduction in cell viability at 300 uM after 72 hrs by MTT assay
Type: functional
Details: MT4, 72 h

Structure (SMILES)	inhibition at 300 µM
Cc1c(C)c2c(c(C)c1OC(=O)CCC(=O)O)CCC(C)(C(=O)O)O2 (stereo not given)	34%

System: not listed separately
Assay: Cytotoxicity against human CEM13 cells assessed as reduction in cell viability after 72 hrs by MTT assay
Type: functional, cell-based
Details: CEM13, 72 h

Structure (SMILES)	IC50
CC1(C)CC(NC(=O)CCC(=O)O)C(C)(C)N1[O] (stereo not given)	> 400 µM
Cc1c(C)c2c(c(C)c1OC(=O)CCC(=O)O)CCC(C)(C(=O)O)O2 (stereo not given)	191 µM
CC1(C)CC(NC(=O)CCC(=O)O)CC(C)(C)N1[O]	> 400 µM

Source: ChEMBL document CHEMBL3865792, “Antioxidant and antitumor activity of trolox, trolox succinate, and α-tocopheryl succinate conjugates with nitroxides” (Eur J Med Chem, 2016)
